From patent publication US5688803A, “Tricyclic dicarbonyl derivatives” (Hoffmann-La Roche Inc., priority 1994, dated 1997)
Counter-ions that a name gives are not always drawn. Like-named read-outs stand apart in the source and are kept apart here.

Legend:
[1] = biological target: T1, glycine binding site on the NMDA receptor (Rattus norvegicus, UniProt P35439); test: Inhibition of [3H]-DCKA (3H-5,7-dichlorokynurenic acid) binding to the glycine binding site on the NMDA receptor, rat brain membranes
T1 construct: membrane preparations from rat brain; from tissue; host or cells: rat brain membranes
Procedure: In order to determine the unspecific binding, the corresponding ligands with concentrations of 1 mM glycine and, respectively, 1 mM glutamate are added. Membrane-bound radioligand is separated from non-bound ligands by centrifugation (15 min, at 40 000 kg; ^3 H-DCKA) or filtration (combination of Whatmann GF/C and GF/B filters; ^3 H-AMPA).
The described substances are used in the binding experiments in different concentrations. The concentrations which inhibited 50% of the binding were determined on the basis of dosage-activity curves for the inhibition of the binding of the corresponding radioligands.

[2] = biological target: glutamate binding site on the kainate/AMPA receptor; test: Inhibition of [3H]-AMPA binding to the glutamate binding site on the kainate/AMPA receptor, rat brain membranes; details: 10 nM ^3 H-AMPA; membrane preparations from rat brain; unspecific binding with 1 mM glutamate; filtration
Procedure: Carefully washed membrane preparations from rat brain are used for the binding studies. The radioligands are used with concentrations of 20 nM ^3 H-DCKA and, respectively, 10 nM ^3 H-AMPA.
In order to determine the unspecific binding, the corresponding ligands with concentrations of 1 mM glycine and, respectively, 1 mM glutamate are added. Membrane-bound radioligand is separated from non-bound ligands by centrifugation (15 min, at […]; ^3 H-DCKA) or filtration (combination of Whatmann GF/C and GF/B filters; ^3 H-AMPA).
The described substances are used in the binding experiments in different concentrations.

[3] = 20 nM ^3 H-DCKA, membrane preparations from rat brain, unspecific binding with 1 mM glycine, centrifugation, read-out: [^3 H]-DCKA IC50

SMILES | IC50 [1, 3] [nM] | IC50 [2] [nM] | IC50 [1] [nM]
O=c1[nH]nc2c3ccc(Cl)cc3[nH]c(=O)n12 [Example 3, 8-Chloro-2,3,5,6-tetrahydro-1,2,4-triazolo[4,3-c]quinazoline-3,5-dione] | 432 | 1750 | –
O=c1[nH]nc2c3ccc(F)cc3[nH]c(=O)n12 [Example 6, 8-Fluoro-2,3,5,6-tetrahydro-1,2,4-triazolo[4,3-c]quinazoline-3,5-dione] | 710 | 8160 | –
O=c1[nH]nc2c3ccc(Br)cc3[nH]c(=O)n12 [Example 8, 8-Bromo-2,3,5,6-tetrahydro-1,2,4-triazolo[4,3-c]quinazoline-3,5-dione] | 322 | 1170 | –
O=c1[nH]nc2c3ccc(I)cc3[nH]c(=O)n12 [Example 9, 8-Iodo-2,3,5,6-tetrahydro-1,2,4-triazolo[4,3-c]quinazoline-3,5-dione] | 189 | 1480 | –
O=c1[nH]nc2c3cc(F)c(Cl)cc3[nH]c(=O)n12 [Example 10, 8-Chloro-9-fluoro-2,3,5,6-tetrahydro-1,2,4-triazolo[4,3-c]quinazoline-3,5-dione] | 202 | 1250 | –
O=c1[nH]nc2c3cc(Cl)c(Cl)cc3[nH]c(=O)n12 [Example 11, 8,9-Dichloro-2,3,5,6-tetrahydro-1,2,4-triazolo[4,3-c]quinazoline-3,5-dione] | 31 | 660 | –
O=c1[nH]nc2c3c(Cl)cc(Cl)cc3[nH]c(=O)n12 [Example 12, 8,10-Dichloro-2,3,5,6-tetrahydro-1,2,4-triazolo[4,3-c]quinazoline-3,5-dione] | 79 | 620 | –
Cc1cc2[nH]c(=O)n3c(=O)[nH]nc3c2cc1C [Example 14, 8,9-Dimethyl-2,3,5,6-tetrahydro-1,2,4-triazolo[4,3-c]quinazoline-3,5-dione] | 132 | 2310 | –
COc1ccc2c(c1)[nH]c(=O)n1c(=O)[nH]nc21 [Example 17, 8-Methoxy-2,3,5,6-tetrahydro-1,2,4-triazolo[4,3-c]quinazoline-3,5-dione] | 180 | 2370 | –
O=c1[nH]nc2c3ccc([N+](=O)[O-])cc3[nH]c(=O)n12 [Example 21, 8-Nitro-2,3,5,6-tetrahydro-1,2,4-triazolo[4,3-c]quinazoline-3,5-dione] | 690 | 243 | –
O=c1[nH]nc2c3ccc(C(F)(F)F)cc3[nH]c(=O)n12 [Example 23, 8-Trifluoromethyl-2,3,5,6-tetrahydro-1,2,4-triazolo[4,3-c]quinazoline-3,5-dione] | 379 | 1010 | –
O=c1[nH]nc2c3cc([N+](=O)[O-])c(Cl)cc3[nH]c(=O)n12 [Example 24, 8-Chloro-9-nitro-2,3,5,6-tetrahydro-1,2,4-triazolo[4,3-c]quinazoline-3,5-dione] | 359 | 362 | –
O=c1[nH]nc2c3cc(Cl)c([N+](=O)[O-])cc3[nH]c(=O)n12 [Example 25, 9-Chloro-8-nitro-2,3,5,6-tetrahydro-1,2,4-triazolo[4,3-c]quinazoline-3,5-dione] | 50 | 50 | –
O=c1nc2c3cc(Cl)c([N+](=O)[O-])cc3[nH]c(=O)n2[nH]1 [Example 26, 9-Chloro-8-nitro-1-yl-2,3,5,6-tetrahydro-[1,2,4]triazolo[1,5-c]quinazoline-2,5-dione sodium salt] | 43 | 82 | –
O=c1[nH]nc2c3cc(F)c([N+](=O)[O-])cc3[nH]c(=O)n12 [Example 27, 9-Fluoro-8-nitro-2,3,5,6-tetrahydro-1,2,4-triazolo[4,3-c]quinazoline-3,5-dione] | 360 | 189 | –
Nc1cc2c(cc1Cl)[nH]c(=O)n1c(=O)[nH]nc21 [Example 29, 9-amino-8-chloro-2,3,5,6-tetrahydro-1,2,4-triazolo[4,3-c]quinazoline-3,5-dione hydrochloride] | 1320 | 8590 | –
CN(C)c1cc2c(cc1[N+](=O)[O-])[nH]c(=O)n1c(=O)[nH]nc21 [Example 30, 9-Dimethylamino-8-nitro-2,3,5,6-tetrahydro-1,2,4-triazolo[4,3-c]quinazoline-3,5-dione] | 342 | 47 | –
O=c1[nH]nc2c3cc([N+](=O)[O-])c([N+](=O)[O-])cc3[nH]c(=O)n12 [Example 37, 8,9-Dinitro-2,3,5,6-tetrahydro-1,2,4-triazolo[4,3-c]quinazoline-3,5-dione] | – | 117 | 640
O=c1nc2c3cc(N4CCCC4)c([N+](=O)[O-])cc3[nH]c(=O)n2[nH]1 [sodium salt] | 3060 | 336 | –

The next lines start with results.

IC50 [1, 3] [nM] | IC50 [2] [nM] | SMILES | IC50 [1] [nM]
3600 | 163 | O=c1[nH]nc2c3cc(N4CCCC4)c([N+](=O)[O-])cc3[nH]c(=O)n12 [Example 32, 8-Nitro-9-pyrrolidin-1-yl-2,3,5,6-tetrahydro-1,2,4-triazolo-[4,3-c]quinazoline-3,5-dione] | –
8540 | 296 | O=c1[nH]nc2c3cc(N4CCOCC4)c([N+](=O)[O-])cc3[nH]c(=O)n12 [Example 34, 9-morpholin-4-yl-8-nitro-2,3,5,6-tetrahydro-1,2,4-triazolo[4,3-c]quinazoline-3,5-dione] | –
2560 | 16 | O=c1nc2c3cc(-n4ccnc4)c([N+](=O)[O-])cc3[nH]c(=O)n2[nH]1 [Example 36, 9-Imidazol-1-yl-8-nitro-2,3,5,6-tetrahydro-[1,2,4]-triazolo[1,5-c]quinazoline-2,5-dione] | –
68 | 71 | O=c1[nH]nc2c3cc(Br)c([N+](=O)[O-])cc3[nH]c(=O)n12 [Example 38, 9-Bromo-8-nitro-2,3,5,6-tetrahydro-1,2,4-triazolo[4,3-c]quinazoline-3,5-dione] | –
909 | – | O=c1[nH]ncc2c1c(O)nc1cc(Cl)ccc12 [Example 43, 8-Chloro-5-hydroxy-3,4-dihydro-pyridazino [4,5-c]quinolin-4-one] | –
193 | 7310 | O=c1[nH][nH]c2c1c(O)nc1cc(Cl)ccc12 [Example 48, 7-Chloro-4-hydroxy-2,3-dihydro-1H-pyrazolo[4,3-c]quinolin-3-one] | –
73 | 1370 | O=c1[nH][nH]c2c1c(O)nc1cc(Cl)c(Cl)cc12 [Example 49, 7,8-Dichloro-4-hydroxy-2,3-dihydro-1H-pyrazolo[4,3-c]quinolin-3-one] | –
459 | 421 | O=c1[nH]oc2c1c(=O)[nH]c1cc([N+](=O)[O-])ccc12 [Example 55, 7-nitro-2,3,4,5-tetrahydro-isoxazol-[4,5-c]quinoline-3,4-dione] | –
266 | 20 | O=c1[nH]oc2c1c(=O)[nH]c1cc(Cl)ccc12 [Example 56, 7-Chloro-2,3,4,5-tetrahydro-isoxazolo[4,5-c]quinoline-3,4-dione] | –
